Data: patent US9980943B2, “Methods of treating muscular dystrophy” (BOARD OF REGENTS OF THE NEVADA SYSTEM OF HIGHER EDUCATION, …, priority 2013, dated 2018)

Key:
[1] = system: α7 integrin (LacZ reporter in α7βgal+/− myoblasts); experiment: Myoblast α7+/LacZ integrin FDG assay (Burkin assay in myoblasts, 96-well); assay type: cell-based, mouse; conditions: SU9516 analogs, 96-well, N=3-6
[2] = system: α7 integrin (LacZ reporter in α7+/LacZ myotubes); experiment: Myotube α7 integrin FDG assay (Burkin assay in myotubes, 96-well); assay type: cell-based, mouse; conditions: for Burkin Assay in Myotubes, value relative to DMSO: SU9516 analogs, 96-well, N=3-6
[3] = system: β-galactosidase in CMV-LacZ C2C12 myoblasts; experiment: CMV-LacZ secondary screen in C2C12 myoblasts (β-Gal stabilizing assay); assay type: cell-based, mouse; conditions: for CMV-LACZ in Myoblasts, value relative to DMSO: SU9516 analogs, C2C12 CMV-LacZ, N=2
Outline: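 Stable CMV-LacZ C2C12 clone; six-point curve 0.5–40 μM; duplicates.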

[4] = system: β-galactosidase in CMV-LacZ C2C12 myotubes; experiment: CMV-LacZ secondary screen in C2C12 myotubes (β-Gal stabilizing assay); assay type: cell-based, mouse; conditions: for CMV-LACZ in Myotubes, value relative to DMSO: SU9516 analogs, C2C12 CMV-LacZ, N=2
Outline: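 CMV-LacZ C2C12 line (clonal, FDG-screened); myoblasts/myotubes dosed 0.5–40 μM (0.5, 1, 5, 10, 20, 40 μM); n=2 per point; β-gal stabilization read-out.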

[5] = system: α7 Integrin protein in C2C12 myotubes; experiment: Western blot of α7 integrin protein in C2C12 myotubes; assay type: cell-based, mouse; conditions: 12 μM, 48 hours, α7B Integrin normalized to GAPDH
Protocol: Bands were quantified using Image J software and then graphed as α7 Integrin protein levels relative to GAPDH protein levels. * denotes a significant difference in relative protein levels with ** p<0.01.
C2C12 myotubes were treated for 48 hours with each hit compound, washed with PBS, then scraped and pelleted using standard procedures. Cell pellets were resuspended in RIPA buffer and protein concentration determined by BCA. Approximately 10 μg of protein was loaded per lane and separated on 8% SDS-PAGE gels and transferred to nitrocellulose using standard conditions. Blots were probed using α7A and α7B integrin specific rabbit polyclonal antibody as previously described and […].
Western blot analysis of the myotube protein extracts were then performed for α7B Integrin and normalized to GAPDH (FIGS. 8A and 8B).
Immunoblot analysis is used to assess the protein level expression in treated and control cells. C2C12 and human DMD myoblasts and myotubes are cultured in triplicate experiments and treated with lead compounds or DMSO as described above. Cells are harvested using a cell scraper and extracted proteins. Extracted protein is quantified by a Bradford assay. […] A LiCoR Odyssey scanner and software is used to quantify band intensities and statistical significance (p<0.05) is determined using ANOVA.

[6] = system: α7 integrin (LacZ reporter in α7LacZ+/− myoblasts); experiment: qHTS of the LOPAC library and MLSMR (online screen, α7LacZ+/− myoblasts); conditions: LOPAC library
Protocol: A total of 250 α7LacZ^+/− myoblasts at passage 13 were dispensed using a multidrop (Thermo) into black low base tissue culture treated microclear aurora plates in 6 μl media containing DMEM without phenol, 5% FBS, 1× GluMax and 1× Penicillin/Streptomycin. […] Compounds were then dispensed using a Kalypsys pintool to deliver 23 nl/well compounds in DMSO (diluted into 6 μl resulting in a 1:260 dilution of compound). […] After incubation with compound, 5 μl of the media was aspirated using the Kalypsys washer/dispenser and 3 μl of the Mammalian Protein Extraction Reagent (MPER) lysis buffer (Thermo Fisher) was added. […] The plates were then incubated for 10 minutes at room temperature.
The assay was adapted for a high-throughput screen with the fully automated Kalypsys robotic system using 1536 well plates at NCGC.

SMILES	Burkin Assay in Myoblasts, value relative to DMSO ([1]; 0.5 uM)	Burkin Assay in Myoblasts, value relative to DMSO ([1]; 1 uM)	Burkin Assay in Myoblasts, value relative to DMSO ([1]; 5 uM)	Burkin Assay in Myoblasts, value relative to DMSO ([1]; 10 uM)	Burkin Assay in Myoblasts, value relative to DMSO ([1]; 20 uM)	Burkin Assay in Myoblasts, value relative to DMSO ([1]; 40 uM)	Burkin Assay in Myotubes, value relative to DMSO ([2]; 0.5 uM)	Burkin Assay in Myotubes, value relative to DMSO ([2]; 1 uM)	Burkin Assay in Myotubes, value relative to DMSO ([2]; 5 uM)	Burkin Assay in Myotubes, value relative to DMSO ([2]; 10 uM)	Burkin Assay in Myotubes, value relative to DMSO ([2]; 20 uM)	Burkin Assay in Myotubes, value relative to DMSO ([2]; 40 uM)	CMV-LACZ in Myoblasts, value relative to DMSO ([3]; 0.5 uM)	CMV-LACZ in Myoblasts, value relative to DMSO ([3]; 5 uM)	CMV-LACZ in Myoblasts, value relative to DMSO ([3]; 10 uM)	CMV-LACZ in Myoblasts, value relative to DMSO ([3]; 20 uM)	CMV-LACZ in Myoblasts, value relative to DMSO ([3]; 40 uM)	CMV-LACZ in Myotubes, value relative to DMSO ([4]; 0.5 uM)	CMV-LACZ in Myotubes, value relative to DMSO ([4]; 1 uM)	CMV-LACZ in Myotubes, value relative to DMSO ([4]; 5 uM)	other results
Cc1[nH]c(C=C2C(=O)Nc3ccccc32)c(C)c1CCC(=O)O [NCGC00241113-01]	1.011	1.057	0.9062	0.8662	0.9594	0.9168	1.078	1.105	0.8489	0.7678	0.7458	0.6312	1.4142	1.1634	1.1352	2.7827	3.3097	0.8627	1.3227	0.9410	CMV-LACZ in Myotubes, value relative to DMSO ([4]; 10 uM): 1.0724; CMV-LACZ in Myotubes, value relative to DMSO ([4]; 20 uM): 0.9790; CMV-LACZ in Myotubes, value relative to DMSO ([4]; 40 uM): 0.9520
Cc1[nH]c(/C=C2\C(=O)Nc3ccc(S(=O)(=O)Cc4c(Cl)cccc4Cl)cc32)c(C)c1C(=O)C1CCCN1CN1CCCC1 (stereo not shown) [NCGC00242500-01]	1.052	1.076	0.8704	0.5879	0.01841	0.01945	0.9974	0.9391	0.9422	0.7534	0.652	0.2132	1.1021	1.6977	2.4909	0.3570	0.4237	1.2482	1.9682	2.2432	CMV-LACZ in Myoblasts, value relative to DMSO ([3]; 1 uM): 1.1446; CMV-LACZ in Myotubes, value relative to DMSO ([4]; 10 uM): 3.3039; CMV-LACZ in Myotubes, value relative to DMSO ([4]; 20 uM): 5.2430; CMV-LACZ in Myotubes, value relative to DMSO ([4]; 40 uM): 7.0800
COc1ccc2c(c1)/C(=C/c1cnc[nH]1)C(=O)N2 [SU9516, 3-[1-(3H-imidazol-4-yl)-meth-(Z)-ylidene]-5-methoxy-1,3-dihydro-indol-2-one, reference compound]																					EC50 ([2]; Mus musculus, Myotube, read-out: EC50 α7+/LacZ MT): 6 µM; activity in C2C12 CMV-LACZ myoblasts [3]: showed activity; activity in C2C12 CMV-LACZ myotubes [4]: showed activity; increase in α7 Integrin protein levels compared to DMSO treated controls [5]: approximately 1.6 fold; outcome of preliminary LOPAC library screen [6]: hit
